Patent publication US11110098B2, “Methods and medicaments for the treatment of renal cell carcinoma” (University of Kansas, priority 2017, dated 2021)

Key:
[1] = type: in vivo; settings: tolvaptan 120 mg/Kg daily oral gavage or dDAVP 1 μg/Kg daily IP, 28 days; for urine osmolality: data not shown
Description: (§1) Female Athymic Nude-Foxn1^nu mice (Nu/Nu mice), 7-8 weeks old and weighing ˜25 g were procured from Envigo/Harlan. All animal studies were carried out according to the protocols approved by the University of Kansas Medical Center Institutional Animal Care and Use Committee. Mice were subcutaneously injected on the right flank region with 1×10^6 Caki-1 cells in 100 μl of DMEM medium. One week after injection, palpable tumors appeared and tumor volume was measured with calipers following the formula, Tumor volume=(length×width)/2. Once the tumor volume reached ˜80-100 mm^3, mice were randomized into sub-groups based on the tumor volume. Animals were administered vehicle, OPC31260 (30 mg/Kg BWt.), OPC31260 (60 mg/Kg BWt) or dDAVP (1 μg/Kg BWt.) and vehicle (saline) by daily intraperitoneal injection, or tolvaptan (120 mg/Kg BWt. in 1% aqueous solution of hydroxypropyl methylcellulose-dose derived from previous study^31) or vehicle by daily oral gavage for 28 days. Body weights and tumor volumes were measured every alternate day. At the end of the study, mice were injected with BRDU (100 mg/Kg BWt. by IP) 90 minutes before sacrifice. Tumors were harvested, photographed and weighed. Tumors were flash frozen or paraffin embedded for further analysis.

Caki-1 cells [2] = test: Caki-1 xenograft tumor growth in nude mice; type: in vivo, Nu/Nu mice; settings: for tumor size and weight at sacrifice versus vehicle: tolvaptan 120 mg/Kg daily oral gavage or dDAVP 1 μg/Kg daily IP
Description: as §1, with “One week after injection, palpable tumors appeared and tumor volume was measured with calipers following the formula, Tumor volume=(length×width)/2.” left out

Caki-1 cells [3] = test: TUNEL assay for apoptosis in xenograft tumor sections; type: in vivo, Nu/Nu mice; settings: OPC31260 IP, tolvaptan 120 mg/Kg oral, dDAVP 1 μg/Kg IP, daily 28 days
Description: as §1
TUNEL assays were performed to check apoptosis using the in situ Cell Death Detection Kit (Roche Applied Science, Indianapolis, Ind.). Briefly, slides with 5-μm tumor sections were treated to a TUNEL reaction mixture containing terminal deoxynucleotidyl transferase and nucleotides, including tetramethylrhodamine-labeled dUTP. Both Dapi stained and TUNEL-positive nuclei were counted as described for proliferating cell nuclear antigen. All images were captured using a Nikon 80i microscope (Tokyo, Japan) in the KUMC Imaging Center.

CCRCC = test: Immunocompetent animal model of spontaneous CCRCC; type: in vivo, Vh1Δ/ΔTrp53Δ/ΔRb1Δ/Δ mice; settings: treatment from 30 weeks after start of tamoxifen till 56 weeks
Description: The Vh1^Δ/ΔTrp53^Δ/ΔRb1^Δ/Δ mice (Harlander S et al, Nat Med 2017 23(7):869-877) can spontaneously develop CCRCC. Gene deletion of Vhl and tumor suppressors p53 and Rb 1 will be achieved using a Ksp1.3-CreERT2, tamoxifen-inducible system. For the studies, 6-week old Vh1^Δ/ΔTrp53^Δ/ΔRb1^Δ/ΔKsp1.3-CreERT2 mice will be treated with vehicle (saline) or tamoxifen for 14 days used to obtain wildtype control mice and Vh1^Δ/ΔTrp53^Δ/ΔRb1^Δ/Δ mice with RCC stumors. Starting 30 weeks after start of tamoxifen, the wildtype and Vh1^Δ/ΔTrp53^Δ/ΔRb1^Δ/Δ mice will be treated with vehicle, dDAVP, OPC31260, or tolvaptan till 56 weeks. The effect of V2R activation or inhibition will be monitored by MRI as well as by gross and pathological analysis and of kidneys at sacrifice.

Caki-1 cells [4] = test: Immunostaining of xenograft tumor sections (Ki-67, BRDU, CD31); type: in vivo, Nu/Nu mice; settings: for BRDU staining / incorporation of tumors compared to vehicle / Ki-67 staining of tumors compared to vehicle / tumor micro-vessel density (CD31 staining): OPC31260 IP, tolvaptan 120 mg/Kg oral, dDAVP 1 μg/Kg IP, daily 28 days
Description: as §1
Tumor tissues were fixed overnight in 4% paraformaldehyde, dehydrated in a graded alcohol series, and embedded in paraffin for histological analysis as previously described^26. Slides with 5 μm tissue sections were heated in a steamer for 20 min in citrate buffer (pH 6.0) to unmask antigens. Slides were further blocked with 10% goat serum (Invitrogen) and then incubated overnight with primary antibody (V2R, CD31, BRDU, Ki67 and p-H3). After washing the slides with PBST, slides were incubated with appropriate fluorescence-labeled secondary antibody (Invitrogen) and streptavidin HRP conjugated (Invitrogen) secondary antibody for immunoflurorescence and immunohistochemistry, respectively. Slides were also incubated in 4′,6-diamidino-2-phenylindole to visualize nuclei. For immunofluorescence staining, slides were mounted with Fluoromount G (Southern Biotech). For immunohistochemistry, slides were developed with DAB (Vector Laboratories) and counterstained with Harris haematoxylin, dehydrated, and mounted with Permount (Fisher Scientific, Waltham, Mass.). All images were captured using a Nikon 80i microscope (Tokyo, Japan) at the KUMC Imaging Center.

Caki-2 = settings: Caki-2, in vitro; cited from earlier work
A498 cells = settings: A498, in vitro; cited from earlier work
[5] = system: pERK1/2, ERK1/2, pCREB, CREB, VEGF; test: Immunoblotting of xenograft tumor lysates; type: in vivo, Nu/Nu mice; settings: for VEGF protein levels in tumors compared to vehicle: OPC31260 IP, daily 28 days
Description: as §1
Tumors from mouse xenografts and cultured 786-O and Caki-1 cells were homogenized in SDS Laemmli buffer and loaded onto 10% SDS-polyacrylamide agarose gel electrophoresis gels, transferred to nitrocellulose membranes and blocked with 5% milk in TBST^32. Membranes were probed with primary antibody followed by wash and horseradish peroxidase secondary antibody application.

[6] = in vivo; cited from earlier work
V2R [7] = target: T1, V2R (Homo sapiens, UniProt P30518); settings: cited from earlier work
T1 sequence (P30518 whole entry): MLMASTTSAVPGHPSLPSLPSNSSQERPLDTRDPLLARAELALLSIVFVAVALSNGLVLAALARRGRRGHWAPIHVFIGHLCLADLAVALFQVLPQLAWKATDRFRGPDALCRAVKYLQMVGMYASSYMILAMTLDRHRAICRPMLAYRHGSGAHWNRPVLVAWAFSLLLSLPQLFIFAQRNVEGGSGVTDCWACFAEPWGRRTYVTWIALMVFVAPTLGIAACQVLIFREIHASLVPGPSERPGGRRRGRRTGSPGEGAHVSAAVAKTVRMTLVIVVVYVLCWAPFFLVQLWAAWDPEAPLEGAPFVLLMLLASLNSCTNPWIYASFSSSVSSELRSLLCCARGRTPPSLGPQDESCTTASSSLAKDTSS

V2R [8] = target: T1, V2R; settings: cited from earlier work; remark: listed apart in the source
V1bR = target: T2, V1bR (Homo sapiens, UniProt P47901); settings: cited from earlier work
T2 sequence (P47901 1-424): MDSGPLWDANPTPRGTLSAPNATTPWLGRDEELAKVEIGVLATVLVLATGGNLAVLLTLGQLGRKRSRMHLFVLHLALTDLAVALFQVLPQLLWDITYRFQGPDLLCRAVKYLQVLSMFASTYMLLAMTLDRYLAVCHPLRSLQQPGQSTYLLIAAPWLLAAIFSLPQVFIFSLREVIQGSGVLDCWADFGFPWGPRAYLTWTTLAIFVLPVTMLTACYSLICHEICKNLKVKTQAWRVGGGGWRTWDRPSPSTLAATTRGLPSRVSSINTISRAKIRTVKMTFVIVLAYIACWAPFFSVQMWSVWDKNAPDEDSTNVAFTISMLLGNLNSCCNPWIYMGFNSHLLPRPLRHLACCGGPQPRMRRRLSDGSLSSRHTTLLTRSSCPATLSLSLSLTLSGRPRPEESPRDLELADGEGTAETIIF

[9] = humans; cited from earlier work
[10] = dDAVP 1 μg/Kg daily IP injection, day 28
[11] = OPC31260 30/60 mg/kg IP, tolvaptan 120 mg/Kg oral, dDAVP 1 μg/Kg IP, 28 days
[12] = tolvaptan 120 mg/Kg oral, dDAVP 1 μg/Kg IP

With `NC(=O)CC[C@@H]1NC(=O)[C@H](Cc2ccccc2)NC(=O)[C@H](Cc2ccc(O)cc2)NC(=O)CCSSC[C@@H](C(=O)N2CCC[C@H]2C(=O)N[C@H](CCCN=C(N)N)C(=O)NCC(N)=O)NC(=O)[C@H](CC(N)=O)NC1=O` [dDAVP, 1-desamino-8-d-arginine vasopressin] the “body weight of the mice” value [1] was “did not significantly change”, the toxicity [1] was “minimal obvious toxicity” and the urine osmolality [1] was “increased”. The “tumor volume till day 21” value (Caki-1 cells [2]; dDAVP 1 μg/Kg daily IP injection) was “did not increase significantly”, the “tumor volume by day 28, higher than its baseline” value (Caki-1 cells [2]; [10]) was 16 fold and the “tumor volume by day 28, higher than vehicle group” value (Caki-1 cells [2]; [10]) was 2 fold. For the same compound, the “tumor size and weight at sacrifice versus vehicle” value (Caki-1 cells [2]; 28 days) was “larger than in the vehicle group”, the “TUNEL staining of tumors compared to vehicle” value (Caki-1 cells [3]) was “no significant change” and the “expected tumor burden / tumor growth” value (CCRCC) was “increased tumor burden”. For the same compound, the “BRDU staining / incorporation of tumors compared to vehicle” value (Caki-1 cells [4]) was “no significant change”, the “Ki-67 staining of tumors compared to vehicle” value (Caki-1 cells [4]) was “significant increase” and the “tumor micro-vessel density (CD31 staining)” value (Caki-1 cells [4]) was “increased”. For the same compound, the “proliferation on V2R activation” value (Caki-2) was “increased proliferation”, the “proliferation on V2R activation” value (A498 cells) was “increased proliferation” and the “pCREB levels in tumor lysates” value [5, 11] was “increased”. For the same compound, the “pERK1/2 levels in tumor lysates” value [5, 11] was “reduced”, the “VEGF protein levels in tumors compared to vehicle” value [5, 12] was “did not affect” and the “ERK1/2 levels in tumor lysates” value ([5]; dDAVP 1 μg/Kg IP, 28 days) was “reduced”.
For `Cc1ccccc1C(=O)Nc1ccc(C(=O)N2CCCC(O)c3cc(Cl)ccc32)c(C)c1` (stereo not drawn) [tolvaptan, N-[4-[(7-chloro-2,3,4,5-tetrahydro-5-hydroxy-1H-1-benzazepin-1-yl)carbonyl]-3-methylphenyl]-2-methylbenzamide], the “oral activity compared with OPC31260” value [6] is listed as “relatively better oral activity than OPC31260”, the “body weight of the mice” value [1] is listed as “did not significantly change” and the toxicity [1] is listed as “minimal obvious toxicity”. The urine osmolality [1] was “significantly reduced”, the “tumor size and weight at sacrifice versus vehicle” value (Caki-1 cells [2]; 28 days) was “smaller and weighed significantly less” and the “tumor volume versus vehicle” value (Caki-1 cells [2]; tolvaptan 120 mg/Kg daily oral gavage, 28 days) was “significantly reduced”. The “selectivity in blocking [3H]AVP binding to human V2R than V1aR” value (V2R [7]) was 29 fold, the “TUNEL staining of tumors compared to vehicle” value (Caki-1 cells [3]) was “increased” and the “expected tumor burden / tumor growth” value (CCRCC) was “significantly suppress tumor growth”. For the same compound, the “BRDU staining / incorporation of tumors compared to vehicle” value (Caki-1 cells [4]) was “significantly reduced”, the “Ki-67 staining of tumors compared to vehicle” value (Caki-1 cells [4]) was “significantly reduced” and the “tumor micro-vessel density (CD31 staining)” value (Caki-1 cells [4]) was “did not appear to alter”. For the same compound, the “effect on cell proliferation and apoptosis compared with OPC31260” value (Caki-1 cells [4]; tolvaptan 120 mg/Kg oral versus OPC31260 IP) was “relatively lower than that of OPC31260”, the “intrinsic V2R agonistic effect” value (V2R [8]) was “no intrinsic V2R agonistic effect” and the “inhibition of V1bR” value (V1bR) was “does not inhibit”. For the same compound, the mean absolute bioavailability [9] was 56%, the “CREB levels in tumor lysates” value ([5]; OPC31260 30/60 mg/kg IP, tolvaptan 120 mg/Kg oral, 28 days) was “reduced” and the “pCREB levels in tumor lysates” value [5, 11] was “reduced”. The “pERK1/2 levels in tumor lysates” value [5, 11] was “reduced” and the “VEGF protein levels in tumors compared to vehicle” value [5, 12] was “significantly reduced”.
In the case of `CCOc1ccc2c(c1)C1(CCC(OCCN3CCOCC3)CC1)C(=O)N2S(=O)(=O)c1ccc(C(=O)NC(C)(C)C)cc1OC` (stereo not drawn) [satavaptan], the “effect on dDAVP-induced proliferation” value (Caki-2) is listed as “abolished dDAVP-induced proliferation”, the “effect on time-dependent increase in cell proliferation (baseline)” value (Caki-2) is listed as “did not reduce” and the “effect on dDAVP-induced proliferation” value (A498 cells) is listed as “abolished dDAVP-induced proliferation”. For the same compound, the “effect on time-dependent increase in cell proliferation (baseline)” value (A498 cells) was “did not reduce”.
